Counter-ions that a name gives are not always drawn.
Target: T1, catalytic domain of human Bub1 (amino acids 704-1085) (Homo sapiens, UniProt O43683)
T1 construct: catalytic domain of human Bub1 (amino acids 704-1085); His6 (N); made in house; host or cells: Hi5 insect cells
Assay: Bub1 kinase assay (TR-FRET)
Format: biochemical
Details: 10 μM ATP, read-out: Biological Assay 1: Bub1 kinase assay median IC50
Protocol: To this end, 100-fold concentrated compound solutions (in DMSO) were previously prepared by serial dilution (1:3.4) of 2 mM stocks in a clear low volume 384-well source microtiter plate (Greiner Bio-One, Frickenhausen, Germany), from which 50 nL of compounds were transferred into a black low volume test microtiter plate from the same supplier. […] The resulting mixture (5 μL final volume) was incubated at 22° C. during 60 min., and the reaction was stopped by the addition of 5 μL of an aqueous EDTA-solution (50 mM EDTA, in 100 mM HEPES pH 7.5 and 0.2% (w/v) bovine serum albumin) which also contained the TR-FRET detection reagents (0.2 μM streptavidin-XL665 [Cisbio Bioassays, Codolet, France] and 1 nM anti-phosho-Serine antibody [Merck Millipore, cat. #35-001] and 0.4 nM LANCE EU-W1024 labeled anti-mouse IgG antibody [Perkin-Elmer, product no. AD0077, alternatively a Terbium-cryptate-labeled anti-mouse IgG antibody from Cisbio Bioassays can be used]). The stopped reaction mixture was further incubated 1 h at 22° C. in order to allow the formation of complexes between peptides and detection reagents. Subsequently, the amount of product was evaluated by measurement of the resonance energy transfer from the Eu-chelate-antibody complex recognizing the Phosphoserine residue to the streptavidin-XL665 bound to the biotin moiety of the peptide. […] IC50 values were calculated by fitting the normalized inhibition data to a 4-parameter logistic equation (Minimum, Maximum, IC50, Hill; Y=Max+(Min−Max)/(1+(X/IC50) Hill)).

T1 sequence (O43683 704-1085): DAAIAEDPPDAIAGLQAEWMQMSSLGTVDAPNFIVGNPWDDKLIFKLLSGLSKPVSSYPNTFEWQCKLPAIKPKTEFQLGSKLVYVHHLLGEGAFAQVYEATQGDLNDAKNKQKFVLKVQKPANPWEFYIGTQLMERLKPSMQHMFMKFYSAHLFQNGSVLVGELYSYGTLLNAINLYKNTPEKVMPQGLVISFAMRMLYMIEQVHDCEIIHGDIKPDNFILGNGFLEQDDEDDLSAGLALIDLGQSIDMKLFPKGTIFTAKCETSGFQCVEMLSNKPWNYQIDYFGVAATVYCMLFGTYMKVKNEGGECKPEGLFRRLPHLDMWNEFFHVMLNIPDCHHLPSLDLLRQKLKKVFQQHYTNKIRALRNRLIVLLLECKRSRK

Compound	IC50 [nM]
COCCOc1cc(F)c(Cn2nc(-c3nc(C)cc(Nc4ccncc4OC(F)(F)F)n3)c3ccccc32)c(F)c1 [Example 2-12-78, 2-{1-[2,6-difluoro-4-(2-methoxyethoxy)benzyl]-1H-indazol-3-yl}-6-methyl-N-[3-(trifluoromethoxy)pyr-idin-4-yl]pyrimidin-4-amine]	12
Cc1cc(Nc2cc(C(C)C)nc(-c3nn(Cc4c(F)cc(OCCO)cc4F)c4ccccc34)n2)c(C)cn1 [Example 2-6-30, 2-{4-[(3-{4-[(2,5-dimethylpyridin-4-yl)amino]-6-isopropylpyrimidin-2-yl}-1H-indazol-1-yl)methyl]-3,5-difluorophenoxy} ethanol]	3200

Same assay, conditions: Biological Assay 1: Bub1 kinase assay median IC50, 10 μM ATP

Compound	IC50 [nM]
COCCOc1cc(F)c(Cn2nc(-c3nc4c(c(Nc5ccnc(C)n5)n3)CNC4)c3ccccc32)c(F)c1 [Example 2-9-25, 2-{1-[2,6-difluoro-4-(2-methoxy-ethoxy)benzyl]-1H-indazol-3-yl}-N-(2-methylpyrimidin-4-yl)-6,7-dihydro-5H-pyrrolo[3,4-d]pyrimidin-4-amine, salt with hydrochloric acid]	77
COCCOc1cc(F)c(Cn2nc(-c3nc4c(c(Nc5cc(C)ncc5C)n3)CCC(C)(C)C4)c3ccccc32)c(F)c1 [Example 2-15-13, 2-{1-[2,6-difluoro-4-(2-methoxyethoxy)benzyl]-1H-indazol-3-yl}-N-(2,5-dimethylpyridin-4-yl)-7,7-dimethyl-5,6,7,8-tetrahydroquinazolin-4-amine]	59
COCCOc1cc(F)c(Cn2nc(-c3nc(CN4CCOCC4)cc(Nc4ccncn4)n3)c3ccccc32)c(F)c1 [Example 2-12-37, 2-{1-[2,6-difluoro-4-(2-methoxyethoxy)benzyl]-1H-indazol-3-yl}-6-(morpholin-4-ylmethyl)-N-(pyrimidin-4-yl)pyrimidin-4-amine]	17
COCCOc1cc(F)c(Cn2nc(-c3nc4c(c(Nc5ccncc5Cl)n3)CNC4)c3ccccc32)c(F)c1 [Example 2-9-24, N-(3-chloropyridin-4-yl)-2-{1-[2,6-difluoro-4-(2-meth-oxyethoxy)benzyl]-1H-indazol-3-yl}-6,7-dihydro-5H-pyrrolo[3,4-d]pyrimidin-4-amine]	38
CCOc1cc(F)c(Cn2nc(-c3nc(CN4CCOCC4)cc(Nc4ccnc(O)c4)n3)c3ccccc32)c(F)c1 [Example 2-12-46, 4-({2-[1-(4-ethoxy-2,6-difluorobenzyl)-1H-indazol-3-yl]-6-(morpholin-4-ylmethyl)pyrimidin-4-yl}amino)pyridin-2-ol]	1100
CC(=O)Nc1cc(Nc2nc(-c3nn(Cc4c(F)cc(O)cc4F)c4ccccc34)nc3c2CCC3)ccn1 [Example 2-6-7, N-[4-({2-[1-(2,6-difluoro-4-hydroxybenzyl)-1H-indazol-3-yl]-6,7-dihydro-5H-cyclopenta[d]pyrimidin-4-yl}amino)pyridin-2-yl]acetamide]	9.3
Cc1cc(Nc2nc(-c3nn(Cc4c(F)cc(O)cc4F)c4ccccc34)nc3c2CCC3)ccn1 [Example 2-6-8, 3,5-difluoro-4-[(3-{4-[(2-methylpyridin-4-yl)amino]-6,7-dihydro-5H-cyclopenta[d]pyrimidin-2-yl}-1H-indazol-1-yl)methyl]phenol]	46
OCCOc1cc(F)c(Cn2nc(-c3nc4c(c(Nc5ccncn5)n3)CN(CC(F)(F)F)C4)c3ccccc32)c(F)c1 [Example 2-6-40, 2-[3,5-difluoro-4-({3-[4-(pyrimidin-4-ylamino)-6-(2,2,2-trifluoroethyl)-6,7-dihydro-5H-pyrrolo[3,4-d]pyrimidin-2-yl]-1H-indazol-1-yl}methyl)phenoxy]ethanol]	9.3
COCCOc1cc(F)c(Cn2nc(-c3nc4c(c(Nc5cc(C)ncc5C)n3)CNC4)c3ccccc32)c(F)c1 [Example 2-9-26, 2-{1-[2,6-difluoro-4-(2-methoxy-ethoxy)benzyl]-1H-indazol-3-yl}-N-(2,5-dimethylpyridin-4-yl)-6,7-dihydro-5H-pyrrolo[3,4-d]pyr-imidin-4-amine]	180
COCCOc1cc(F)c(Cn2nc(-c3nc4c(c(Nc5ccnc(C)n5)n3)CCC(C)(C)C4)c3ccccc32)c(F)c1 [Example 2-15-9, 2-{1-[2,6-difluoro-4-(2-methoxyethoxy)benzyl]-1H-indazol-3-yl}-7,7-dimethyl-N-(2-methylpyrimidin-4-yl)-5,6,7,8-tetrahydroquinazolin-4-amine]	81
COCCOc1cc(F)c(Cn2nc(-c3nc4c(c(Nc5cc(C)ncc5C)n3)CCC4)c3ccccc32)c(F)c1 [Example 2-12-57, 2-{1-[2,6-difluoro-4-(2-methoxyethoxy)benzyl]-1H-indazol-3-yl}-N-(2,5-dimethylpyridin-4-yl)-6,7-dihydro-5H-cyclopenta[d]pyrimidin-4-amine]	130
COCCOc1cc(F)c(Cn2nc(-c3ncc(C4CCNCC4)c(Nc4ccnc(C)n4)n3)c3ccccc32)c(F)c1 [Example 2-17-10, 2-{1-[2,6-difluoro-4-(2-methoxyethoxy)benzyl]-1H-indazol-3-yl}-N-(2-methylpyrimidin-4-yl)-5-(piperidin-4-yl)pyrimidin-4-amine]	85

The remaining lines, values ahead:

IC50 [nM]	Compound
6000	CCOc1cc(F)c(Cn2nc(-c3nc(Nc4ccncn4)cc(-c4sc(C)nc4C)n3)c3ccccc32)c(F)c1 [Example 2-12-85, 6-(2,4-dimethyl-1,3-thiazol-5-yl)-2-[1-(4-ethoxy-2,6-difluorobenzyl)-1H-indazol-3-yl]-N-(pyrimidin-4-yl)pyrimidin-4-amine]
12	CCOc1cc(F)c(Cn2nc(-c3nc4c(c(Nc5ccncc5)n3)CCCC4)c3ccccc32)c(F)c1 [Example 2-19-21, 2-[1-(4-ethoxy-2,6-difluorobenzyl)-1H-indazol-3-yl]-N-(pyridin-4-yl)-5,6,7,8-tetrahydroquinazolin-4-amine]
13	CCOc1cc(F)c(Cn2nc(-c3ncc(C)c(Nc4ccncc4)n3)c3ccccc32)c(F)c1 [Example 2-2-4, 2-[1-(4-ethoxy-2,6-difluorobenzyl)-1H-indazol-3-yl]-5-methyl-N-(pyridin-4-yl)pyrimidin-4-amine]
44	CCOc1cc(F)c(Cn2nc(-c3ncc(CC4CNC4)c(Nc4cc(C)ncc4C)n3)c3ccccc32)c(F)c1 [Example 2-9-19, 5-(azetidin-3-ylmethyl)-N-(2,5-dimethylpyridin-4-yl)-2-[1-(4-ethoxy-2,6-difluorobenzyl)-1H-indazol-3-yl]pyrimidin-4-amine, salt with hydrochloric acid]
480	CS(=O)(=O)Cc1cnc(-c2nn(Cc3c(F)cc(OCCO)cc3F)c3ccccc23)nc1N(CCO)c1ccncc1 [Example 2-4-4, 2-[(2-{1-[2,6-difluoro-4-(2-hydroxyethoxy)benzyl]-1H-indazol-3-yl}-5-[(methylsulfonyl)methyl]pyrimidin-4-yl)(pyridin-4-yl)amino]ethanol]
68	CCOc1cc(F)c(Cn2nc(-c3nc4c(c(Nc5ccncc5)n3)CCN(Cc3ccccc3)C4)c3ccccc32)c(F)c1 [Example 2-12-15, 7-Benzyl-2-[1-(4-ethoxy-2,6-difluorobenzyl)-1H-indazol-3-yl]-N-(pyridin-4-yl)-5,6,7,8-tetrahydropyrido[3,4-d]pyrimidin-4-amine]
12	CCOc1cc(F)c(Cn2nc(-c3ncc(CCCSC)c(Nc4ccncc4)n3)c3ccccc32)c(F)c1 [Example 2-2-2, 2-[1-(4-ethoxy-2,6-difluorobenzyl)-1H-indazol-3-yl]-5-[3-(methylsulfanyl)propyl]-N-(pyridin-4-yl)pyrimidin-4-amine]

— patent publication US20170275270A1, “BENZYL SUBSTITUTED INDAZOLES” (Bayer Pharma Aktiengesellschaft, priority 2014, published 2017)
